Here are results for 15 compounds from patent US8222260B2, “Substituted 6-anilinopurine derivatives as inhibitors of cytokinin oxidase/dehydrogenase and preparations containing these derivatives” (Univerzita Palackego V Olomouci, priority 2007, dated 2012).

Broadly, the EC50 is the concentration needed to bring the measured effect to its halfway point. Read a high EC50 as lower potency in that assay. As a reminder, the IC50 is the point on the concentration scale where inhibition reaches its midpoint.

Experiment [1] concerns the target T1, AHK3 (Arabidopsis thaliana, UniProt Q9C5U1).
T1 sequence (Q9C5U1 1-1036): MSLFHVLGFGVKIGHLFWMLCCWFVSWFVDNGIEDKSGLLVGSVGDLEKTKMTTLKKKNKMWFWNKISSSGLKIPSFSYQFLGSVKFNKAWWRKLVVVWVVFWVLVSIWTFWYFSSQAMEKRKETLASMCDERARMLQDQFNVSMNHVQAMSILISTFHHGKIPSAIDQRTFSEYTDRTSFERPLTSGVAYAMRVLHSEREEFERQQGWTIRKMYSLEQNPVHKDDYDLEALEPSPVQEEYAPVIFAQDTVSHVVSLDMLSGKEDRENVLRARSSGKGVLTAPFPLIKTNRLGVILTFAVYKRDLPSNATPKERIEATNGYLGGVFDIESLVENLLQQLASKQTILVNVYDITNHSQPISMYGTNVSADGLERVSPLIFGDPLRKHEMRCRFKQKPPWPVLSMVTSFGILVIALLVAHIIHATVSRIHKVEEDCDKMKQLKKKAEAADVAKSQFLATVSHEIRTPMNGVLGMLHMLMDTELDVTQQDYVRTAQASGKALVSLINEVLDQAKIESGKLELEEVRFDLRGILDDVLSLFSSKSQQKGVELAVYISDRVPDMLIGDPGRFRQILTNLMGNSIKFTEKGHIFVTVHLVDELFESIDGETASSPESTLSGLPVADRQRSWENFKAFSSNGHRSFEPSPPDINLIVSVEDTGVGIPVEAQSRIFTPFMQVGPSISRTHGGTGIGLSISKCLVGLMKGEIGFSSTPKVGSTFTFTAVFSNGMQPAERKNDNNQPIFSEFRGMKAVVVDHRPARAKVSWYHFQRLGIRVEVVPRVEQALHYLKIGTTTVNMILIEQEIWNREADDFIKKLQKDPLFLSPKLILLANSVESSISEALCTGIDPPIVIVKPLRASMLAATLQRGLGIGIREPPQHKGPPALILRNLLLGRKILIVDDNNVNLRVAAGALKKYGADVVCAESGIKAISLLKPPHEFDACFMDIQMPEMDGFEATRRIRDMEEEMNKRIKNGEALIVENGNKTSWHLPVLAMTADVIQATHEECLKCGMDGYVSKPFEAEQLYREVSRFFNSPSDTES
As to the kind of experiment: Activation of cytokinin receptors (E. coli KMI001 beta-galactosidase reporter). To be noted: 28 h incubation; n.a. means no activation. The class given is cell-based. The method, then:
(§1) Escherichia coli strains KMI001 harbouring the plasmid […]4 or […]3 were grown overnight at 25° C. in M9 media enriched with 0.1% casamino acids to OD600 1. The preculture was diluted 1:600 in 1 ml M9 medium containing 0.1% casamino acids and 1 μl stock solution of either the tested compound (10^-7 M-5×10^-5 M) or solvent control (DMSO, ethanol, methanol) were added. The cultures were further grown at 25° C. in microtiter plate, 200 μl per well. […] The cultures were centrifuged and 50 μl aliquots of the supernatant were transferred to microtiter plate containing 2 μl 150 mM 4-methyl umbelliferyl galactoside which was subsequently incubated for 1 h at 37° C. The reaction was stopped by adding 100 μl 0.2 M Na2CO3. […] The EC50 value, the compound concentration activating the receptor to 50%, was calculated from the obtained dose response curves. The values shown in Table 10 are means of three replicates and the entire test was repeated at least twice.

Experiment [2] addresses CRE1/AHK4 (Arabidopsis thaliana, UniProt Q9C5U0). Described as above. Type of experiment: cell-based. The settings on record: 17 h incubation; n.a. means no activation. The method, then:
as §1

Experiment [3] concerns cytokinin-dependent tobacco callus Nicotiana tabacum L. cv. Wisconsin 38. As to the kind of experiment: Tobacco callus biotest (plant cell division). Type of experiment: cell-based. The settings on record: at the concentration with highest activity, relative to 10^−5 M kinetin. On the procedure:
The stimulatory effect of the newly prepared derivatives was tested in the calus biotest using cytokinin-dependent tobacco callus. Cytokinin-dependent tobacco callus Nicotiana tabacum L. cv. Wisconsin 38 was maintained at 25° C. in darkness on modified Murashige-Skoog medium, containing per 1 liter: 4 μmol of nicotinic acid, 2.4 μmol of pyridoxine hydrochloride, 1.2 μmol of thiamine, 26.6 μmol of glycine, 1.37 μmol of glutamine, 1.8 μmol of myo-inositol, 30 g of sucrose, 8 g of agar, 5.37 μmol of NAA and 0.5 μmol of 6-benzylaminopurine. Subcultivation was carried out every three weeks. Fourteen days before the bioassay, the callus tissue was transferred to the media without 6-benzylaminopurine. The biological activity was determined from the increase of the fresh callus weight after four weeks of cultivation. Five replicates were prepared for each concentration of the compound tested and the entire test was repeated twice. […] The compounds to be tested were dissolved in dimethylsulfoxide (DMSO) and the solution brought up to 10^−3 M with distilled water.
From the obtained data, the concentration with the highest activity was selected for each compound tested. Relative activity of the compound at this concentration was calculated (Table 11). The activity obtained for 10^−5 M of the control substance kinetin (K) was postulated as 100%.

Experiment [4] has as its system Amaranthus caudatus cotyledon/hypocotyl explants. As to the kind of experiment: Amaranthus bioassay (betacyanin content). The class given is cell-based, Amaranthus caudatus var. atropurpurea. To be noted: at the concentration with highest activity, relative to 10^−5 M kinetin. The method, then: The standard Amaranthus bioassay was performed with the following modifications. The seeds of Amaranthus caudatus var. atropurpurea were surface-sterilised in 10% (w/v) N-chlorobenzenesulfonamide for 10 min and washed 5 times with deionized water. They were placed in 15 cm Petri dishes containing paper tissues saturated with deionized water. After 72 h of cultivation at 25° C. in darkness, the roots of the seedlings were cut off. The explants, consisting of two cotyledons and hypocotyls, were placed in 5 cm Petri dishes onto two layers of filtration paper soaked with 1 ml of the incubation medium containing 10 μmol of Na2HPO4—KH2PO4, pH 6.8, 5 μmol of tyrosine and the compound to be tested. There were 20 explants per dish. The procedure was carried out under green safe light in a darkroom. After 48 h of incubation at 25° C. in darkness, betacyanin was extracted by freezing the explants in 4 ml 3.33 μM acetic acid. The concentration of betacyanin was determined from the absorbances at 537 nm and 620 nm as follows: ΔA=A537nm−A620nm. The values ΔA were plotted against the concentration tested, are means of five replicates and the entire test was repeated at least twice. […] The compounds to be tested were dissolved in dimethylsulfoxide (DMSO) and the solution brought up to 10^−3M with distilled water.
From the obtained data, the concentration with the highest activity was selected for each compound tested. Relative activity of the compound at this concentration was calculated (Tab. 12). The activity obtained for 10^−5 M kinetin (K) was postulated as 100%.

The target of experiment [5] is T2, recombinant AtCKX2 (Arabidopsis thaliana, UniProt Q9FUJ3).
T2 sequence (Q9FUJ3 23-501): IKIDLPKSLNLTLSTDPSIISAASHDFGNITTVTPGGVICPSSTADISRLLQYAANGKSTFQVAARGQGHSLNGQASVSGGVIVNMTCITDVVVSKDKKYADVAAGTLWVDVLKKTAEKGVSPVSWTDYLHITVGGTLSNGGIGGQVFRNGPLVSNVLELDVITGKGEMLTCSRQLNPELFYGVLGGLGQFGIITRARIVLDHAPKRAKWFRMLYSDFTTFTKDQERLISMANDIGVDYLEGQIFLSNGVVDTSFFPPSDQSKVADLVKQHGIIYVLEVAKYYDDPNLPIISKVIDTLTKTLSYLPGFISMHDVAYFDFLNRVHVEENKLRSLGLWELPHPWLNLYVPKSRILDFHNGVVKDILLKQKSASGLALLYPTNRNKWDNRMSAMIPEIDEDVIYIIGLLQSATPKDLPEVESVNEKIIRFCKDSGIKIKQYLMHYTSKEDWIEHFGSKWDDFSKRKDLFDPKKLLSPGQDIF
Description: Inhibition of cytokinin oxidase/dehydrogenase activity (PMS/MTT microtitre plate assay). Type of experiment: biochemical. On the procedure: IC50 determinations were done using the assay in microtitre plate. Each well contained 100 μL of PMS/MTT [phenazine methosulfate/3-(4,5-dimethylthiazol-2-yl)-2,5-diphenyltetrazolium bromide] reaction mixture (final concentrations: 0.1 M KH2PO4, pH 7.4, 1 mM MTT, 0.2 mM PMS) containing the tested compound (3×10^−7 M-3×10^−4 M) and 30 μM N^6-isopentenyladenine (iP) as a substrate. 100 μL of cell-free growth medium of S. cerevisiae strain 23344c ura^− harboring the plasmid pYES2-AtCKX2 was directly used as a source of AtCKX2. Plates were incubated in the dark for […] at 37° C. and the enzymatic reaction was stopped by 25 μL of 35% acetic acid. The absorbance at 578 nm was measured using spectrophotometer Tecan. Absorbance of the sample without iP was subtracted.
The IC50 value, the compound concentration that inhibits the enzyme activity to 50%, was calculated from the obtained dose response curves. The values shown in Table 9 are means of three replicates and the entire test was repeated at least twice.

Setting [6] is: 30 μM iP as substrate, pH 7.4, 37° C., means of three replicates, read-out: IC50, inhibition of recombinant AtCKX2.

Like-named read-outs stand apart in the source and are kept apart here.

Chain of CRE1/AHK4 (Q9C5U0 whole entry): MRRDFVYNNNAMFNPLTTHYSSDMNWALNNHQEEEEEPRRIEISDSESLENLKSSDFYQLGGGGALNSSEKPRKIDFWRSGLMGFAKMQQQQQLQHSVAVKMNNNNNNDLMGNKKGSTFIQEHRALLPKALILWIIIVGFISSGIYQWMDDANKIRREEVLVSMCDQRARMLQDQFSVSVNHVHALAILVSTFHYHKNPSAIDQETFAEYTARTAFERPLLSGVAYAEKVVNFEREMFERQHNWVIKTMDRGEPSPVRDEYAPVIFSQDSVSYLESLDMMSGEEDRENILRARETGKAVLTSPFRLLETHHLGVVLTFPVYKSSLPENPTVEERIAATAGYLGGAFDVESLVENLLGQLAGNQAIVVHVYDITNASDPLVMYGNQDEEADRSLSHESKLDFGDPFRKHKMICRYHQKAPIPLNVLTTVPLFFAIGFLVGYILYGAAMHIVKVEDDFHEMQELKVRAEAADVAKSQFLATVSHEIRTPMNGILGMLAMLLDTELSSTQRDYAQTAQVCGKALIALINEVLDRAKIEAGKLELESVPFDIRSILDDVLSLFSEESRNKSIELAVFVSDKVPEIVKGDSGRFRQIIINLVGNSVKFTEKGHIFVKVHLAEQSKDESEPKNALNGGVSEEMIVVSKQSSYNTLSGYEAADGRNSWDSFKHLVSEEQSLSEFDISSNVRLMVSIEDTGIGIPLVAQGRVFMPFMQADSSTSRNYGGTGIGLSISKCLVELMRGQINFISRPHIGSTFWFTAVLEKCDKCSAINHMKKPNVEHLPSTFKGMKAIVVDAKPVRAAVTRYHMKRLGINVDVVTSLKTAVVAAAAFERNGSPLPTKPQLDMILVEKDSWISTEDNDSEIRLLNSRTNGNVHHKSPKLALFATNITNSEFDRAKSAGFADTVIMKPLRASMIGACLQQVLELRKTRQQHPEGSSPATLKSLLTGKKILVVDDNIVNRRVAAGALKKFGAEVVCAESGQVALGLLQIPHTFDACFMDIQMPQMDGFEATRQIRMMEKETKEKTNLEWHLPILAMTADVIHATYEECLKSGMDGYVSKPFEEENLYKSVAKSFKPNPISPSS

For the compound `Cc1ccc(Nc2nc(Cl)nc3[nH]cnc23)cc1C` [Compound 30], the results for the EC50 in experiment [1] and in experiment [2] were greater than 50 µM and 33.3 µM, respectively.

In the case of `Oc1ccccc1Nc1nc(F)nc2[nH]cnc12` [Compound 47], the EC50 in experiment [1] is 45.8 µM; in experiment [2], greater than 50 µM.

On to `Oc1ccc(Nc2nc(F)nc3[nH]cnc23)cc1` [Compound 49], for which the “Activity (%) [10^−5 mol · l^−1 K = 100%]” value in experiment [3] turned out to be 106%. In addition, the values for the EC50 in experiment [1] and in experiment [2] were greater than 50 µM and 37.1 µM, respectively.

`COc1ccccc1Nc1nc(F)nc2[nH]cnc12` [Compound 50]: the “Activity (%) [10^−5 mol · l^−1 K = 100%]” value was found to be 117.6% in experiment [3] and 105.2% in experiment [4]. Further, the half-maximal effective concentration (EC50) in experiment [1] is 17.4 µM; in experiment [2], greater than 50 µM.

For `Nc1nc(Nc2cccc(F)c2)c2nc[nH]c2n1` [Compound 69], in experiment [5] (setting [6]), the IC50 was found to be 29.4 µM. The “Activity (%) [10^−5 mol · l^−1 K = 100%]” value in experiment [4] is reported as 113.2%. In experiment [1], this compound returned an EC50 greater than 50 µM.

Take `Nc1nc(Nc2ccccc2O)c2[nH]cnc2n1` [Compound 71]: the EC50 in experiment [1] and in experiment [2] was greater than 50 µM each time.

For `COc1cccc(Nc2nc(N)nc3nc[nH]c23)c1` [Compound 75, 2-Amino-6-(3-methoxyanilino)purine], the IC50 in experiment [5] (setting [6]) turned out to be 24.7 µM. Besides, the “Activity (%) [10^−5 mol · l^−1 K = 100%]” value in experiment [4] is 123.6%. Also, the EC50 in experiment [1] was found to be 20.4 µM.

Regarding `Sc1nc(Nc2cccc(Cl)c2)c2nc[nH]c2n1` [Compound 80], the half-maximal inhibitory concentration (IC50) in experiment [5] (setting [6]) turned out to be 28.4 µM. The figures for the “Activity (%) [10^−5 mol · l^−1 K = 100%]” value in experiment [3] and in experiment [4] were 126% and 106%, respectively. Also, in experiment [1], the EC50 came to 42 µM.

For the compound `COc1cccc(Nc2nc(S)nc3[nH]cnc23)c1` [Compound 88], in experiment [5] (setting [6]), the IC50 turned out to be 28.3 µM. For the same compound, the results for the “Activity (%) [10^−5 mol · l^−1 K = 100%]” value in experiment [3] and in experiment [4] were 103.4% and 113.4%, respectively. In addition, the response in experiment [1] was half-maximal at 31.7 µM (EC50).

For the compound `CSc1nc(Nc2cccc(Cl)c2)c2nc[nH]c2n1` [Compound 96], the “Activity (%) [10^−5 mol · l^−1 K = 100%]” value in experiment [3] worked out at 121.2%; in experiment [4], 145.8%. Besides, the EC50 in experiment [1] was found to be 29 µM; in experiment [2] it was 41 µM.

As for `CSc1nc(Nc2cccc(F)c2)c2nc[nH]c2n1` [Compound 98], the “Activity (%) [10^−5 mol · l^−1 K = 100%]” value turned out to be 130.3% in experiment [3] and 142.5% in experiment [4]. Moreover, the EC50 is 32 µM in experiment [1] and 49 µM in experiment [2].

`Cc1nc(Nc2cccc(Cl)c2)c2nc[nH]c2n1` [Compound 111]: the half-maximal inhibitory concentration (IC50) in experiment [5] (setting [6]) amounted to 15.7 µM. For the same compound, in experiment [3], the “Activity (%) [10^−5 mol · l^−1 K = 100%]” value amounted to 128.3%. In experiment [1], this compound showed a half-maximal effective concentration (EC50) greater than 50 µM.

For `Cc1nc(Nc2cccc(F)c2)c2nc[nH]c2n1` [Compound 113], in experiment [5] (setting [6]), the IC50 is 21.8 µM. The “Activity (%) [10^−5 mol · l^−1 K = 100%]” value in experiment [3] was determined as 125.3%; in experiment [4] it was 120.2%.

For the compound `COc1cccc(Nc2nc(C)nc3nc[nH]c23)c1` [Compound 118, 2-Methyl-6-(3-methoxyanilino)purine], the half-inhibitory concentration (IC50) in experiment [5] (setting [6]) is 9.4 µM. For the same compound, the “Activity (%) [10^−5 mol · l^−1 K = 100%]” value in experiment [3] is recorded as 105.7%; in experiment [4], 144.2%. In addition, in experiment [1], the EC50 was greater than 50 µM.

As to `O=C(Nc1ccccc1)Nc1cnns1` [thidiazuron, reference compound], the IC50 in experiment [5] worked out at 30 µM.
